The structures appear in SMILES notation. Where a SMILES comes first, the peptide text is derived from it. [ ]: non-standard residue; d: D form. sY = N[C@@H](Cc1ccc(OS(=O)(=O)O)cc1)C(=O)O; Nle = CCCC[C@H](N)C(=O)O

The target in this assay is T1, Tyrosine-protein phosphatase non-receptor type 1 (Rattus norvegicus, UniProt P20417).
T1 sequence (P20417 whole entry): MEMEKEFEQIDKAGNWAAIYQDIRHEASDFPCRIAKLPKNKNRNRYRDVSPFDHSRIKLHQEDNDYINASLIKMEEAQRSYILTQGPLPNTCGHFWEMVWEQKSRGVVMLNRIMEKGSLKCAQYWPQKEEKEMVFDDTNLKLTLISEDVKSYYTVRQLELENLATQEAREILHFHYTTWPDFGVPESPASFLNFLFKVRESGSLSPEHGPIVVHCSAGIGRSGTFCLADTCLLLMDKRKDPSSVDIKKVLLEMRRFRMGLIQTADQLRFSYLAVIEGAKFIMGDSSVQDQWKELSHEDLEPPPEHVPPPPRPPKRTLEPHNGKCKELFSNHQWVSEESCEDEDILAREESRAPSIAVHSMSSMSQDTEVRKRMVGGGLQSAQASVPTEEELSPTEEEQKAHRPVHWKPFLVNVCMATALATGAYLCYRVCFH
In words: PTP1B Inhibition Assay. The note with it: pH 7.2; 22 °C. From the text: Hydrolysis of substrate p-nitrophenyl phosphate was monitored on a 96-well microplate reader. Concentrations of PTP1B inhibitors that resulted in 50% reduction of enzyme activity (IC50) were derived by fitting reaction rates obtained in the presence and absence of compounds.
For `CCCCCNC(=O)[C@H](Cc1ccc(OC(C(=O)O)C(=O)O)cc1)NC(=O)CCC(=O)O` [2-{4-[(2S)-2-(3-formamidopropanoic acid)-2-(pentylcarbamoyl)ethyl]phenoxy}propanedioic acid], the Ki (usually the dissociation constant of the complex between target and ligand, obtained from inhibition or displacement) came out at 12 µM.

The compound `CCCCCNC(=O)[C@H](Cc1ccc(OCC(=O)OC)c(C(=O)OC)c1)NC(=O)[C@H](Cc1ccccc1)NC(=O)CCC(=O)OC` [methyl 2-(2-methoxy-2-oxoethoxy)-5-[(2S)-2-[(2S)-2-(methyl 3-formamidopropanoate)-3-phenylpropanamido]-2-(pentylcarbamoyl)ethyl]benzoate] displayed a Ki of more than 100 µM.

Consider `CCCCCNC(=O)[C@H](Cc1ccc(OC(C(=O)O)C(=O)O)cc1)NC(=O)[C@H](Cc1ccccc1)NC(=O)CCC(=O)O` [2-{4-[(2S)-2-[(2S)-2-(3-formamidopropanoic acid)-3-phenylpropanamido]-2-(pentylcarbamoyl)ethyl]phenoxy}propanedioic acid], for which the Ki came out at 1.2 µM.

With `CCCCCNC(=O)[C@H](Cc1ccc(OCC(=O)O)c(C(=O)O)c1)NC(=O)CCC(=O)O` [2-(carboxymethoxy)-5-[(2S)-2-(3-formamidopropanoic acid)-2-(pentylcarbamoyl)ethyl]benzoic acid], the Ki was 2.8 µM.

Compound `CCCCCNC(=O)[C@H](Cc1ccc(OCC(=O)O)c(C(=O)O)c1)NC(=O)[C@H](Cc1ccccc1)NC(=O)Cn1[nH]ncc1=S` [2-(carboxymethoxy)-5-[(2S)-2-(pentylcarbamoyl)-2-[(2S)-3-phenyl-2-[1-(5-sulfanyl-1H-1,2,3-triazol-1-yl)acetamido]propanamido]ethyl]benzoic acid] displayed a Ki of 0.12 µM.

As to `CCCCCNC(=O)[C@H](Cc1ccc(OS(=O)(=O)O)cc1)NC(=O)CCC(=O)O` [Compound II], the affinity, expressed as Ki, was 30 µM.

`CCCC[C@H](NC(=O)[C@H](Cc1ccc(OS(=O)(=O)O)cc1)NC(=O)[C@H](CC(=O)O)NC(C)=O)C(N)=O` (Ac-Asp-[sY]-[Nle]-NH2) yielded a Ki of 5 µM.

The record behind these values is BindingDB's records for doi:10.1021/bi002865v (Pharmacia, 2001).
